Test results from patent US20250263415A1, “TERTIARY AMIDE DERIVATIVES SUBSTITUTED WITH 4-MEMBERED RING STRUCTURE” (Sumitomo Pharma Co., Ltd., priority 2024, published 2025).

Columns and labels:
[1] = target: hDAT (Homo sapiens (Human), UniProt Q01959); experiment: Dopamine receptor inhibitory activity evaluation (binding assay, CHO-S/hDAT membranes); conditions: off-target
Description: The binding evaluation assay was outsourced to Eurofins. Specifically, CHO—S/hDAT cells were homogenized in an incubation buffer consisting of 50 mmol/L Tris-HCl, pH 7.4, 100 mmol/L NaCl, 1 μmol/L Leupeptin, and 10 μmol/L PMSF. The membrane pellet obtained by centrifugation was resuspended in the incubation buffer to prepare a membrane preparation. The test compound (1-10 μmol/L DMSO solution), the membrane preparation, and 0.15 nmol/L […] were mixed and incubated at 4° C. for 180 minutes. The cell membrane-[^125I]RTI-55 complex was bound to a GF/B filter mat by vacuum filtration and washed with 50 mmol/L Tris-HCl, pH 7.4. The effect on the receptor was assessed by measuring radioactivity using a scintillation counter.

[2] = test system: G-401 xenograft; experiment: Drug efficacy evaluation by oral administration using G-401 xenograft model mice; assay type: in vivo
Description: (§1) G-401 cells (ATCC) were intradermally transplanted into 4-7-week-old BALB/cAnNCrj-nu/nu mice (CAnN.Cg-Foxnl/CrlCrlj, Jackson Laboratory Japan) at 5×10^5 cells/mouse. After confirming the engraftment of G-401 cells 10-40 days after transplantation, the test compound suspended in a solvent such as 0.5% methylcellulose solution was orally administered twice a day at a dose of 1-100 mg/kg. The tumor volume was measured over time from the start of administration, and the effect of tumor volume reduction by administration of the test compound was evaluated. The tumor volume can be calculated from the following equation using the minor axis and major axis of the tumor measured with an electronic caliper (Mitutoyo).
A control administration group administered with only a solvent such as 0.5% methylcellulose solution and a test compound administration group were compared, and the antitumor effect was evaluated by calculating T/C from the following equation.

[3] = Pharmacokinetic study in mice; assay type: in vivo
Description: The test compound was administered to 7-week-old female BALE/c (BALB/cAnN CrlCrlj) mice intravenously (dosage: 1 mg/kg) in a 50% PEG solution (0.01 mol/L HCl) or orally (dosage: 10 mg/kg) in a 0.5% methylcellulose aqueous solution, and blood was collected at the following times: • Intravenous administration: 5 min, 15 min, 30 min, 1 hr, 2 hr, 4 hr, 6 hr, and 24 hr after administration • Oral administration: 15 min, 30 min, 1 hr, 2 hr, 4 hr, 6 hr, and 24 hr after administration
The collected blood was centrifuged at 3000 rpm×10 min using a refrigerated centrifuge set at 4° C., and the obtained plasma was measured by LC-MS. A calibration curve was prepared from the value (peak ratio) obtained by dividing the peak area of the test substance by the peak area of the internal standard substance in MS and the concentration of the plasma calibration curve sample. The concentration in the sample was calculated from the peak ratio and the calibration curve of each sample.

[4] = Solubility test; assay type: physicochemical; conditions: pH 2.0 and pH 3.0 buffers
Description: The solubility was measured for Examples 7, 10, 20, 23, 24, and 30 to 34, Comparative Example 1, and Comparative Example 2. The test compound was added to 10 mmol/L glycine buffer (pH 2.0) and 10 mmol/L citrate buffer (pH 3.0), and the mixture was stored in a thermostatic chamber at 5° C. After standing overnight, the mixture was filtered through a membrane filter, and the concentration of the filtrate was measured by HPLC.
The HPLC measurement conditions are as follows.
HPLC conditions • Column: Acquity UPLC BEH C18, 1.7 μm, 50×2.1 mm • Column temperature: 40° C. • Mobile phase: A: 0.1% trifluoroacetic acid-containing water • B: acetonitrile • A/B (min): 95/5 (0)→0/100 (3.5)→0/100 (4)→95/5 (4.01)→95/5 (5) • Flow rate: 0.8 mL/min • Detection: UV visible detector, measurement wavelength 254 nm • Injection volume: 5 μL or • Column: Acquity UPLC BEH C18, 1.7 μm, 50×2.1 mm • Column temperature: 40° C. • Mobile phase: A: 0.1% trifluoroacetic acid-containing water • B: acetonitrile • A/B (min): • 80/20 (0)→40/60 (3.0)→0/100 (3.5)→0/100 (4)→80/20 (4.01)→80/20 (5) • Flow rate: 0.8 mL/min • Detection: UV visible detector, measurement wavelength 254 nm • Injection volume: 2 μL or • Column: Acquity UPLC BEH C18, 1.7 μm, 50×2.1 mm • Column temperature: 40° C. • Mobile phase: A: 0.1% trifluoroacetic acid-containing water • B: acetonitrile • A/B (min): • 80/20 (0)→40/60 (3.0)→0/100 (3.5)→0/100 (4)→100/0 (4.01)→100/0 (5) • Flow rate: 0.8 mL/min • Detection: UV visible detector, measurement wavelength 254 nm • Injection volume: 3 μL

[5] = target: hSERT (Homo sapiens (Human), UniProt P31645); experiment: Serotonin receptor inhibitory activity evaluation (binding assay, HEK293/hSERT membranes); conditions: off-target
Chain of hSERT (P31645 whole entry): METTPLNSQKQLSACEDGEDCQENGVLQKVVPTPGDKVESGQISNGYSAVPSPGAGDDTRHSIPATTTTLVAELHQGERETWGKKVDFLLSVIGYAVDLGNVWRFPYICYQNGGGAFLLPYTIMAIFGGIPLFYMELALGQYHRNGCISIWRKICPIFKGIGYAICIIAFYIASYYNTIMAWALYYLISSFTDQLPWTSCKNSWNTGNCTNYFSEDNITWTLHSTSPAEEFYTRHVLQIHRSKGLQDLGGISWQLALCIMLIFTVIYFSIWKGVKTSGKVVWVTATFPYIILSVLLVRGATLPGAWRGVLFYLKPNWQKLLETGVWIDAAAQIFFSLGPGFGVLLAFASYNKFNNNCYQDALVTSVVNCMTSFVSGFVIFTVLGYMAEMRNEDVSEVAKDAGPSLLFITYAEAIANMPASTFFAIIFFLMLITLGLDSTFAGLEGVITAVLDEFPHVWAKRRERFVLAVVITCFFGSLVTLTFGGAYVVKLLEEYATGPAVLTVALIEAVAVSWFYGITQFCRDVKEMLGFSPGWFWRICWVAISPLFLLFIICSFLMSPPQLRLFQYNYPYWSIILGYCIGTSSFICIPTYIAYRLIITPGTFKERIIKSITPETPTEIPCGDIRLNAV
Description: The binding evaluation assay was outsourced to Eurofins. Specifically, HEK293/hSERT cells were homogenized in a buffer consisting of 100 mmol/L NaCl, 1 μmol/L Leupeptin, 10 μmol/L PMSF, and 50 mmol/L Tris-HCl (pH7.4). The membrane pellet obtained by centrifugation was resuspended in an incubation buffer consisting of 50 mmol/L Tris-HCl (pH 7.4), 120 mmol/L NaCl, and 5 mmol/L KCl to prepare a membrane preparation. The test compound (1-10 μmol/L DMSO solution), the membrane preparation, and 0.4 nmol/L [^3H]Paroxetin were mixed and incubated at 25° C. for 60 minutes. The cell membrane-[^3H]Paroxetin complex was bound to a GF/B filter mat by vacuum filtration and washed with 50 mmol/L Tris-HCl (pH 7.4). The effect on the receptor was assessed by measuring radioactivity using a scintillation counter.

[6] = test system: G-401 xenograft; experiment: Drug efficacy evaluation by intravenous administration using G-401 xenograft mice model; assay type: in vivo; conditions: G-401 xenograft model
Description: as §1, with “as 10 mmol/L glycine buffer” for “as 0.5% methylcellulose”, “solution (pH 2.0)” for “solution”, “was” for “was orally”, “administered via the tail vein at least once” for “administered twice”, “a week” for “a day”, “of 0.015-20” for “of 1-100”
A control administration group administered with only a solvent such as 10 mmol/L glycine buffer solution (pH 2.0) and a test compound administration group were compared, and the antitumor effect was evaluated by calculating T/C from the following equation.

[7] = target: recombinant p300 (Homo sapiens (Human), UniProt Q09472); experiment: HAT activity inhibition experiment (SensoLyte HAT(p300) Assay Kit); assay type: biochemical
Chain of recombinant p300 (Q09472 whole entry): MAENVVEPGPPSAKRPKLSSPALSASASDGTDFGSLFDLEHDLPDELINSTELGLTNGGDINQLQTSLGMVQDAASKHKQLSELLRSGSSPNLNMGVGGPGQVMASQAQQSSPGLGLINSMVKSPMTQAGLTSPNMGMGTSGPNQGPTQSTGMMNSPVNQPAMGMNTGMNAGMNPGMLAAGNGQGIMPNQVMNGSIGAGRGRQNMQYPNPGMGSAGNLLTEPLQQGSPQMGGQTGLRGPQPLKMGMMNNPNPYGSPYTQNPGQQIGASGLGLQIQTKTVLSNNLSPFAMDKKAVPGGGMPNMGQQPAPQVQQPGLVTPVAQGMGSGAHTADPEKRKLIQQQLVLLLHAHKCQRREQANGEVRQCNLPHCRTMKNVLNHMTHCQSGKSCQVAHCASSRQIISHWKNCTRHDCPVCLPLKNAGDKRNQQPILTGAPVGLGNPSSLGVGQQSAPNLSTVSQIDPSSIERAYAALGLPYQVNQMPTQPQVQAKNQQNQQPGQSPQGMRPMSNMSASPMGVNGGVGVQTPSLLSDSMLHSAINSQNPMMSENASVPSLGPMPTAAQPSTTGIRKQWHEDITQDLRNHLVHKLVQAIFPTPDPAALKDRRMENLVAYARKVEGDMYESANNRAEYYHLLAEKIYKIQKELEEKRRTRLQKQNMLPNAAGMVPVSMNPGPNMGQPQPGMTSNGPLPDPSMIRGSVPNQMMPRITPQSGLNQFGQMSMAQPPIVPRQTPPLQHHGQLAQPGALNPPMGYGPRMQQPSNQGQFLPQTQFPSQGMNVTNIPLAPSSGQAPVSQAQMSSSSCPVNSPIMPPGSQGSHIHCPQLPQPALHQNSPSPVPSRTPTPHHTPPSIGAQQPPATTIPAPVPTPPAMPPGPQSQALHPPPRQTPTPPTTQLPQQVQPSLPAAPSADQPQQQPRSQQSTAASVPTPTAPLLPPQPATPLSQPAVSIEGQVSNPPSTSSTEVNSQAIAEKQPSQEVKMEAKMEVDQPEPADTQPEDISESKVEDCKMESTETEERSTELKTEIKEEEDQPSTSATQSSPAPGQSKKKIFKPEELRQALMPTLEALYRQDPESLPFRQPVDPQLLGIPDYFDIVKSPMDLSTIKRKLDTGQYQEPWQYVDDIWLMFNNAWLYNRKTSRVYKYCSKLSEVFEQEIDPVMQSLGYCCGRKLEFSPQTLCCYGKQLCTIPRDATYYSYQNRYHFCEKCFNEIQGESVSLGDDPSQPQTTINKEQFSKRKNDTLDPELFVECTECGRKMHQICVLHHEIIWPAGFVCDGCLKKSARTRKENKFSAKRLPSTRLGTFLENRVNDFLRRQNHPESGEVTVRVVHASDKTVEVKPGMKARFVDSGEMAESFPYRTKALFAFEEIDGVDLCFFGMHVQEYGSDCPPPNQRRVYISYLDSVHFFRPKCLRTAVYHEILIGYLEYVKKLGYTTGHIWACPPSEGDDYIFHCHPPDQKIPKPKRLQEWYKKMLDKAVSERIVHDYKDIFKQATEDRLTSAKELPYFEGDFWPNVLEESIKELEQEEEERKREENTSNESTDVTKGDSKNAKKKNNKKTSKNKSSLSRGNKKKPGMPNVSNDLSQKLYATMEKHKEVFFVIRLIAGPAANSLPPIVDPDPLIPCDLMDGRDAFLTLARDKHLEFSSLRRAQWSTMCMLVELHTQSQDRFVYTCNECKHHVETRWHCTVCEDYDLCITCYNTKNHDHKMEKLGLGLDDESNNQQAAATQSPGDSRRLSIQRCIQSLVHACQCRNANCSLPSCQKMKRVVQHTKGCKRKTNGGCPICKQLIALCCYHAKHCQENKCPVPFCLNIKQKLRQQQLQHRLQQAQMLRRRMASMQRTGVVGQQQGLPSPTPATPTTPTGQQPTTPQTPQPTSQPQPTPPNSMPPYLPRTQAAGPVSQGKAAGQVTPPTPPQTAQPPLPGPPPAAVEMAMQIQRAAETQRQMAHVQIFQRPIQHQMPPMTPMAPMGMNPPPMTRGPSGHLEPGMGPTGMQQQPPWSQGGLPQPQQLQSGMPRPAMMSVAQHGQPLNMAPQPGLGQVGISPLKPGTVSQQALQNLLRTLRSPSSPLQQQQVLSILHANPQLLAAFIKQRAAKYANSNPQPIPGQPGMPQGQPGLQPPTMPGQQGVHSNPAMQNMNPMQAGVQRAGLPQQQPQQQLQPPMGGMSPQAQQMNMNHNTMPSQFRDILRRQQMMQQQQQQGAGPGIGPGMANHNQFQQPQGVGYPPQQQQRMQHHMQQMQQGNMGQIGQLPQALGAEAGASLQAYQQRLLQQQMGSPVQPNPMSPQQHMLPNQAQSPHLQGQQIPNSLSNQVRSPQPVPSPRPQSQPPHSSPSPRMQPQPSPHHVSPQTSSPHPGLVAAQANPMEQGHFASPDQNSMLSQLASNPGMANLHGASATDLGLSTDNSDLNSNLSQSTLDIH
Description: The HAT activity inhibitory ability of HAT inhibitors was evaluated using SensoLyte HAT(p300) Assay Kit (ANASPEC, AS-72172). Specifically, 7.5 μL of the compound of Examples […] diluted with assay buffer was added to 7.5 μL of recombinant p300 solution diluted 10 times with assay buffer, and the mixture was incubated at room temperature for 10 minutes. 7.5 μL of acetyl CoA solution diluted 10 times with assay buffer and 15 μL of histone H3 peptide diluted 10 times with assay buffer were added thereto, and the mixture was incubated at 37° C. for 30 minutes. 37.5 μL of Stop Solution was added to stop the reaction. 75 μL of p300 Developer solution diluted 50 times with assay buffer was added, and the mixture was incubated at room temperature for 30 minutes under light-shielded conditions. The fluorescence at 513 nm when irradiated with 389 nm excitation light was measured using a multiplate reader.

[8] = test system: G-401 cells; experiment: Cell proliferation inhibition experiment using G-401 cells; assay type: cell-based
Description: G-401 cells (derived from malignant rhabdoid tumor) were obtained from the American Type Culture Collection (ATCC). G-401 cells were cultured in McCoy's 5A medium containing 10% fetal bovine serum and 1% penicillin/streptomycin under conditions of 37° C. and 5% CO2.
500 cells per well were seeded in a 384-well plate. One day after seeding, Examples 1 to 35 were added so that the final concentration of DMSO was 0.1%, and the cells were cultured for 3 days. After the culture was completed, the cell viability was measured using CellTiter-Glo Luminescent Cell Viability Assay (Promega, G7570).

Chain of hDAT (Q01959 whole entry): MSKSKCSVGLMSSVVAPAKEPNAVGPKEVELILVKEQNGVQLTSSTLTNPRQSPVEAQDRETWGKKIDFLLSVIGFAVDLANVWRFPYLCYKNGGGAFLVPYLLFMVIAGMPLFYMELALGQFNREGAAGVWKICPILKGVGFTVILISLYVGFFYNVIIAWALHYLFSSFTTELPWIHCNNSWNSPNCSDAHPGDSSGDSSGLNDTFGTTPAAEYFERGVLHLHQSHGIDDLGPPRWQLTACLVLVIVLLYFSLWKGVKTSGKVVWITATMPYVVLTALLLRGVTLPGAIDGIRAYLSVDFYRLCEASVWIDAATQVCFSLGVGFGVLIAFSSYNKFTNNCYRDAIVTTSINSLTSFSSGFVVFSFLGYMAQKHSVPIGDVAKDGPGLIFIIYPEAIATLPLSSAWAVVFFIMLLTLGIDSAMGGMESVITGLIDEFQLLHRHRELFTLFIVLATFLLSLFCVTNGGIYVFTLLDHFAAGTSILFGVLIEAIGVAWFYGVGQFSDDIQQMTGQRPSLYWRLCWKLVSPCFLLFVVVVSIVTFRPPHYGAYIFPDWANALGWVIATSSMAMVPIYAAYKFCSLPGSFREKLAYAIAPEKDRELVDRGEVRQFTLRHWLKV

Row | HAT activity inhibition (in words) [7] | SMILES | Inhibitory effect on dopamine receptors (in words) [1] | Antitumor effect, oral administration (in words) [2] | Pharmacokinetics (in words) [3] | Solubility (in words) [4] | Inhibitory effect on serotonin receptors (in words) [5] | Antitumor effect, intravenous administration (in words) [6] | Cell proliferation inhibitory effect on G-401 cells (in words) [8]
1 | strong inhibition of HAT activity | CN1CC(N(Cc2ccc(F)cc2)C(=O)CN2C(=O)N[C@]3(C[C@@H](F)c4cc(-c5cnn(C)c5F)ccc43)C2=O)(C(F)(F)F)C1 [Example 15, 2-[(1′S,3′R)-3′-fluoro-5′-(5-fluoro-1-methyl-1H-pyrazol-4-yl)-2,5-dioxo-2′,3′-dihydrospiro[imidazolidine-4,1′-inden]-1-yl]-N-[(4-fluorophenyl)methyl]-N-[1-methyl-3-(trifluoromethyl)azetidin-3-yl]acetamide] | – | – | – | – | – | – | strong cell proliferation inhibitory effect
2 | strong inhibition of HAT activity | CN1CC(N(Cc2ccc(F)cc2)C(=O)CN2C(=O)N[C@]3(C[C@@H](F)c4cc(-c5cn(C)nc5F)ccc43)C2=O)(C(F)(F)F)C1 [Example 17, 2-[(1′S,3′R)-3′-fluoro-5′-(3-fluoro-1-methyl-1H-pyrazol-4-yl)-2,5-dioxo-2′,3′-dihydrospiro[imidazolidine-4,1′-inden]-1-yl]-N-[(4-fluorophenyl)methyl]-N-[1-methyl-3-(trifluoromethyl)azetidin-3-yl]acetamide] | – | – | – | – | – | – | strong cell proliferation inhibitory effect

Continued, compound first:

Row | SMILES | HAT activity inhibition (in words) [7] | Inhibitory effect on dopamine receptors (in words) [1] | Antitumor effect, oral administration (in words) [2] | Pharmacokinetics (in words) [3] | Solubility (in words) [4] | Inhibitory effect on serotonin receptors (in words) [5] | Antitumor effect, intravenous administration (in words) [6] | Cell proliferation inhibitory effect on G-401 cells (in words) [8]
3 | CN1CC(N(Cc2ccc(F)cc2)C(=O)CN2C(=O)N[C@]3(C[C@@H](F)c4cc(-c5cnn(C)c5)ccc43)C2=O)(C(F)(F)F)C1 [Example 10, 2-[(1′S,3′R)-3′-fluoro-5′-(1-methyl-1H-pyrazol-4-yl)-2,5-dioxo-2′,3′-dihydrospiro[imidazolidine-4,1′-inden]-1-yl]-N-[(4-fluorophenyl)methyl]-N-[1-methyl-3-(trifluoromethyl)azetidin-3-yl]acetamide] | – | did not show strong inhibitory activity | strong antitumor effects | excellent pharmacokinetics | high solubility | did not show strong inhibitory activity | strong antitumor effects | –
4 | CN1CC(N(Cc2ccc(F)cn2)C(=O)CN2C(=O)N[C@]3(C[C@@H](F)c4cc(-c5cnn(C)c5)ccc43)C2=O)(C(F)(F)F)C1 [Example 20, 2-[(1′S,3′R)-3′-fluoro-5′-(1-methyl-1H-pyrazol-4-yl)-2,5-dioxo-2′,3′-dihydrospiro[imidazolidine-4,1′-inden]-1-yl]-N-[(5-fluoropyridin-2-yl)methyl]-N-[1-methyl-3-(trifluoromethyl)azetidin-3-yl]acetamide] | – | did not show strong inhibitory activity | strong antitumor effects | excellent pharmacokinetics | high solubility | did not show strong inhibitory activity | strong antitumor effects | strong cell proliferation inhibitory effect
5 | O=C1N[C@]2(C[C@@H](F)c3cc(-c4cnn(C5CCN(C6COC6)CC5)c4)ccc32)C(=O)N1CC(=O)N(Cc1ccc(F)cn1)C1(C(F)(F)F)COC1 [Example 23, 2-[(1′S,3′R)-3′-fluoro-5′-{1-[1-(oxetan-3-yl)piperidin-4-yl]-1H-pyrazol-4-yl}-2,5-dioxo-2′,3′-dihydrospiro[imidazolidine-4,1′-inden]-1-yl]-N-[(5-fluoropyridin-2-yl)methyl]-N-[3-(trifluoromethyl)oxetan-3-yl]acetamide] | – | did not show strong inhibitory activity | strong antitumor effects | excellent pharmacokinetics | high solubility | did not show strong inhibitory activity | strong antitumor effects | –
